Test results taken from US20150105252A1, “SUBSTITUTED PYRAZOLES AS HERBICIDES” (E I DU PONT DE NEMOURS AND COMPANY, priority 2013, published 2015).

How the values were obtained:
[1] = tested on: lambsquarters; assay: Test D postemergence; assay type: in vivo, Chenopodium album; conditions: scale 0 to 100
Method in brief: (§1)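 Formulation was a non-phytotoxic solvent mixture plus surfactant, applied either to soil at planting (silt loam, preemergence) or to foliage of 2–18 cm plants (postemergence). Visual evaluation versus controls followed at 14–21 days, scored 0–100.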

[2] = tested on: ryegrass, Italian; assay: Test D postemergence; assay type: in vivo, Lolium multiflorum; conditions: scale 0 to 100
Method in brief: as §1

[3] = tested on: barley, spring; assay: Test D preemergence; assay type: in vivo, Hordeum vulgare; conditions: Preemergence, scale 0 to 100
Method in brief: as §1

[4] = tested on: barley, winter; assay: Test D preemergence; assay type: in vivo, Hordeum vulgare; conditions: Preemergence, scale 0 to 100
Method in brief: as §1

[5] = tested on: oat, wild; assay: Test D postemergence; assay type: in vivo, Avena fatua; conditions: scale 0 to 100
Method in brief: as §1

[6] = tested on: buckwheat, wild; assay: Test D postemergence; assay type: in vivo, Polygonum convolvulus; conditions: scale 0 to 100
Method in brief: as §1

[7] = tested on: lambsquarters; assay: Test D preemergence; assay type: in vivo, Chenopodium album; conditions: Preemergence, scale 0 to 100
Method in brief: as §1

[8] = tested on: mustard, wild; assay: Test D postemergence; assay type: in vivo, Sinapis arvensis; conditions: scale 0 to 100
Method in brief: as §1

[9] = tested on: mustard, wild; assay: Test D preemergence; assay type: in vivo, Sinapis arvensis; conditions: Preemergence, scale 0 to 100
Method in brief: as §1

[10] = tested on: chamomile; assay: Test D preemergence; assay type: in vivo, Matricaria inodora; conditions: Preemergence, scale 0 to 100
Method in brief: as §1

[11] = tested on: bluegrass; assay: Test D preemergence; assay type: in vivo, Poa annua; conditions: Preemergence, scale 0 to 100
Method in brief: as §1

[12] = tested on: kochia; assay: Test D preemergence; assay type: in vivo, Kochia scoparia; conditions: Preemergence, scale 0 to 100
Method in brief: as §1

[13] = tested on: oat, wild; assay: Test D preemergence; assay type: in vivo, Avena fatua; conditions: Preemergence, scale 0 to 100
Method in brief: as §1

[14] = tested on: galium; assay: Test D postemergence; assay type: in vivo, Galium aparine; conditions: scale 0 to 100
Method in brief: as §1

[15] = tested on: bromegrass, downy; assay: Test D postemergence; assay type: in vivo, Bromus tectorum; conditions: scale 0 to 100
Method in brief: as §1

[16] = tested on: field violet; assay: Test D preemergence; assay type: in vivo, Viola arvensis; conditions: Preemergence, scale 0 to 100
Method in brief: as §1

[17] = tested on: kochia; assay: Test D postemergence; assay type: in vivo, Kochia scoparia; conditions: scale 0 to 100
Method in brief: as §1

[18] = tested on: canarygrass; assay: Test D postemergence; assay type: in vivo, Phalaris minor; conditions: scale 0 to 100
Method in brief: as §1

[19] = tested on: foxtail, green; assay: Test D postemergence; assay type: in vivo, Setaria viridis; conditions: scale 0 to 100
Method in brief: as §1

[20] = tested on: pigweed; assay: Test D preemergence; assay type: in vivo, Amaranthus retroflexus; conditions: Preemergence, scale 0 to 100
Method in brief: as §1

Q: `CCCc1cc(C(=O)NC2CC2)nn1Cc1cc(C(F)(F)F)nn1C` [Compound 202] was tested. Which “Lambsquarters plant response rating” value ([1]; Postemergence, 31 g ai/ha) did it give?
A: 50

Q: And the “Lambsquarters plant response rating” value ([1]; Postemergence, 125 g ai/ha)?
A: 60

Q: And the “Lambsquarters plant response rating” value ([1]; Postemergence, 250 g ai/ha)?
A: 80

Q: What about the “Lambsquarters plant response rating” value ([1]; postemergence, 62 g ai/ha) of the same compound?
A: 50

Q: What about the “Ryegrass, Italian plant response rating” value ([2]; Postemergence, 31 g ai/ha) of the same compound?
A: 10

Q: What about the “Ryegrass, Italian plant response rating” value ([2]; Postemergence, 125 g ai/ha) of the same compound?
A: 10

Q: And the “Ryegrass, Italian plant response rating” value ([2]; Postemergence, 250 g ai/ha)?
A: 15

Q: What about the “Ryegrass, Italian plant response rating” value ([2]; postemergence, 62 g ai/ha) of the same compound?
A: 10

Q: And the “Plant response rating, Barley, Spring” value ([3]; 31 g ai/ha)?
A: 0

Q: What about the “Plant response rating, Barley, Spring” value ([3]; 62 g ai/ha) of the same compound?
A: 0

Q: And the “Plant response rating, Barley, Spring” value ([3]; 125 g ai/ha)?
A: 55

Q: What about the “Plant response rating, Barley, Spring” value ([3]; 250 g ai/ha) of the same compound?
A: 65

Q: What about the “Plant response rating, Barley, Winter” value ([4]; 31 g ai/ha) of the same compound?
A: 0

Q: What about the “Plant response rating, Barley, Winter” value ([4]; 62 g ai/ha) of the same compound?
A: 0

Q: What about the “Plant response rating, Barley, Winter” value ([4]; 125 g ai/ha) of the same compound?
A: 25

Q: What about the “Plant response rating, Barley, Winter” value ([4]; 250 g ai/ha) of the same compound?
A: 45

Q: What about the “Oat, Wild plant response rating” value ([5]; Postemergence, 31 g ai/ha) of the same compound?
A: 25

Q: And the “Oat, Wild plant response rating” value ([5]; Postemergence, 125 g ai/ha)?
A: 30

Q: What about the “Oat, Wild plant response rating” value ([5]; Postemergence, 250 g ai/ha) of the same compound?
A: 40

Q: And the “Oat, Wild plant response rating” value ([5]; postemergence, 62 g ai/ha)?
A: 25

Q: What about the “Buckwheat, Wild plant response rating” value ([6]; Postemergence, 31 g ai/ha) of the same compound?
A: 40

Q: And the “Buckwheat, Wild plant response rating” value ([6]; Postemergence, 125 g ai/ha)?
A: 70

Q: What about the “Buckwheat, Wild plant response rating” value ([6]; Postemergence, 250 g ai/ha) of the same compound?
A: 90

Q: What about the “Buckwheat, Wild plant response rating” value ([6]; postemergence, 62 g ai/ha) of the same compound?
A: 40

Q: What about the “Plant response rating, Lambsquarters” value ([7]; 62 g ai/ha) of the same compound?
A: 75

Q: And the “Plant response rating, Lambsquarters” value ([7]; 125 g ai/ha)?
A: 100

Q: What about the “Plant response rating, Lambsquarters” value ([7]; 250 g ai/ha) of the same compound?
A: 100

Q: And the “Mustard, Wild plant response rating” value ([8]; Postemergence, 31 g ai/ha)?
A: 70

Q: What about the “Mustard, Wild plant response rating” value ([8]; Postemergence, 125 g ai/ha) of the same compound?
A: 70

Q: And the “Mustard, Wild plant response rating” value ([8]; Postemergence, 250 g ai/ha)?
A: 75

Q: What about the “Mustard, Wild plant response rating” value ([8]; postemergence, 62 g ai/ha) of the same compound?
A: 70

Q: What about the “Plant response rating, Mustard, Wild” value ([9]; 62 g ai/ha) of the same compound?
A: 100

Q: And the “Plant response rating, Mustard, Wild” value ([9]; 125 g ai/ha)?
A: 100

Q: What about the “Plant response rating, Mustard, Wild” value ([9]; 250 g ai/ha) of the same compound?
A: 100

Q: What about the “Plant response rating, Chamomile” value ([10]; 31 g ai/ha) of the same compound?
A: 5

Q: And the “Plant response rating, Chamomile” value ([10]; 62 g ai/ha)?
A: 100

Q: What about the “Plant response rating, Chamomile” value ([10]; 125 g ai/ha) of the same compound?
A: 100

Q: And the “Plant response rating, Chamomile” value ([10]; 250 g ai/ha)?
A: 100

Q: And the “Plant response rating, Bluegrass” value ([11]; 31 g ai/ha)?
A: 10

Q: What about the “Plant response rating, Bluegrass” value ([11]; 62 g ai/ha) of the same compound?
A: 5

Q: And the “Plant response rating, Bluegrass” value ([11]; 125 g ai/ha)?
A: 50

Q: And the “Plant response rating, Bluegrass” value ([11]; 250 g ai/ha)?
A: 80

Q: What about the “Plant response rating, Kochia” value ([12]; 62 g ai/ha) of the same compound?
A: 100

Q: And the “Plant response rating, Kochia” value ([12]; 125 g ai/ha)?
A: 100

Q: And the “Plant response rating, Kochia” value ([12]; 250 g ai/ha)?
A: 100

Q: And the “Plant response rating, Oat, Wild” value ([13]; 62 g ai/ha)?
A: 15

Q: What about the “Plant response rating, Oat, Wild” value ([13]; 125 g ai/ha) of the same compound?
A: 65

Q: What about the “Plant response rating, Oat, Wild” value ([13]; 250 g ai/ha) of the same compound?
A: 100

Q: And the “Galium plant response rating” value ([14]; Postemergence, 31 g ai/ha)?
A: 70

Q: What about the “Galium plant response rating” value ([14]; Postemergence, 125 g ai/ha) of the same compound?
A: 70

Q: And the “Galium plant response rating” value ([14]; Postemergence, 250 g ai/ha)?
A: 75

Q: And the “Galium plant response rating” value ([14]; postemergence, 62 g ai/ha)?
A: 70

Q: What about the “Bromegrass, Downy plant response rating” value ([15]; Postemergence, 31 g ai/ha) of the same compound?
A: 25

Q: What about the “Bromegrass, Downy plant response rating” value ([15]; Postemergence, 125 g ai/ha) of the same compound?
A: 35

Q: And the “Bromegrass, Downy plant response rating” value ([15]; Postemergence, 250 g ai/ha)?
A: 35

Q: What about the “Bromegrass, Downy plant response rating” value ([15]; postemergence, 62 g ai/ha) of the same compound?
A: 25

Q: And the “Plant response rating, Field Violet” value ([16]; 62 g ai/ha)?
A: 25

Q: What about the “Plant response rating, Field Violet” value ([16]; 125 g ai/ha) of the same compound?
A: 100

Q: What about the “Plant response rating, Field Violet” value ([16]; 250 g ai/ha) of the same compound?
A: 100

Q: And the “Kochia plant response rating” value ([17]; Postemergence, 31 g ai/ha)?
A: 70

Q: And the “Kochia plant response rating” value ([17]; Postemergence, 125 g ai/ha)?
A: 75

Q: And the “Kochia plant response rating” value ([17]; Postemergence, 250 g ai/ha)?
A: 85

Q: What about the “Kochia plant response rating” value ([17]; postemergence, 62 g ai/ha) of the same compound?
A: 70

Q: And the “Canarygrass plant response rating” value ([18]; Postemergence, 31 g ai/ha)?
A: 15

Q: And the “Canarygrass plant response rating” value ([18]; Postemergence, 125 g ai/ha)?
A: 15

Q: And the “Canarygrass plant response rating” value ([18]; Postemergence, 250 g ai/ha)?
A: 20

Q: And the “Canarygrass plant response rating” value ([18]; postemergence, 62 g ai/ha)?
A: 15

Q: And the “Foxtail, Green plant response rating” value ([19]; Postemergence, 31 g ai/ha)?
A: 20

Q: What about the “Foxtail, Green plant response rating” value ([19]; Postemergence, 125 g ai/ha) of the same compound?
A: 20

Q: What about the “Foxtail, Green plant response rating” value ([19]; Postemergence, 250 g ai/ha) of the same compound?
A: 30

Q: And the “Foxtail, Green plant response rating” value ([19]; postemergence, 62 g ai/ha)?
A: 20

Q: And the “Plant response rating, Pigweed” value ([20]; 62 g ai/ha)?
A: 100

Q: And the “Plant response rating, Pigweed” value ([20]; 125 g ai/ha)?
A: 100

Q: And the “Plant response rating, Pigweed” value ([20]; 250 g ai/ha)?
A: 100
